Assays:
Assay type in all cases: cell-based, human
[1] = system: C3a and C5a; experiment: immunofluorescence analysis of C3a and C5a expression in RPE cells; settings: siRNA 24 hours, Bay 1170-82 10 μM, control DMSO / control siRNA
Protocol: In order to confirm the inhibitory effect of complement activity in the case of treatment with an inhibitor of cathepsin S expression or activity, RPE cells were treated with cathepsin S siRNA (CTSS siRNA, CTSSiRNA) and then the effect of inhibiting complement activity was analyzed. At this time, NF-κB inhibitor were treated as a comparison group. Specifically, RPE cells were treated with control siRNA or CTSS siRNA for 24 hours in the presence or absence of NF-κB inhibitor Bay 1170-82 (10 μM), respectively. After that, immunofluorescence analysis was performed for the expression of C3a and C5a in RPE cells. Experimental methods and conditions were applied in the same manner as in Example 3.

[2] = system: ARPE-19 cells; experiment: MTT viability of RPE cells according to H2O2 treatment; settings: H2O2 6.25-100 μM, 48 hours, compared to the control
Protocol: In order to confirm the decrease in viability of retinal pigment epithelium cells (RPE cells, hereinafter referred to as RPE cells) according to H2O2 treatment, MTT analysis was performed, and the viability and iNOS expression of RPE cells according to H2O2 treatment were confirmed.
First, a human retinal-pigmented epithelial cell line (hereinafter referred to as ARPE-19 cells (ATCC, Manassas, VA, USA)) was used and inoculated into 96-well plates and cultured for 24 hours. Thereafter, the cells were treated with 6.25 μM 12.5 μM, 25 μM, 50 μM, and 100 μM H2O2 for 48 hours, a 3-(4,5-dimethylthiazol-2-yl)-2,5-diphenyl-tetrazolium bromide (MTT) solution was added to the medium, and the cells were cultured at 37° C. for 4 hours. The MTT-comprising medium was removed and the cells were lysed in 50 μl of DMSO. An optical density at 540 nm was confirmed using a microplate spectrophotometer (SpectraMax; Molecular Devices, Sunnyvale, CA, USA), and cell viability was determined by repeating each experiment three times to calculate an average value.

[3] = system: iNOS; experiment: iNOS expression in RPE cells according to H2O2 treatment (RT-PCR, western blot)
Protocol: In addition, the expression level of iNOS expressed in RPE cells according to H2O2 treatment was analyzed. Specifically, after RPE cells were treated with 10 μM, 50 μM, and 100 μM H2O2, relative iNOS mRNA expression levels were confirmed, and western blot experiments were performed. Total RNA was prepared using a Ribospin™ II kit from GeneAll Biotechnology (Seoul, South Korea) according to the manufacturer's recommendations. Total RNA (1 μg) was reverse transcribed into first-strand cDNA using an iScript™ cDNA Synthesis kit (Bio-Rad Laboratories, Inc., California, USA) according to the manufacturer's instructions, real-time reverse transcription-polymerase chain reaction (RT-PCR) was performed using a Thermal Cycler CFX96™ Real-Time PCR System (Bio-Rad Laboratories, USA), and each experiment was repeated three times to derive the results. RPE cells were washed with ice-cold PBS and then extracted with a protein lysis buffer (Intron Biotechnology, Seoul, South Korea). Protein samples of cell lysates were mixed with an equal volume of 2×SDS sample buffer, denatured by heating for 5 minutes and then separated on a 10% SDS-PAGE gel. After electrophoresis, proteins were transferred to a polyvinylidene difluoride membrane, and the membrane was blocked and washed using 5% BSA for 40 minutes. […]

[4] = system: cathepsin S (CTSS); experiment: cathepsin S expression in RPE cells under oxidative stress (mRNA, western blot)
Protocol: To confirm the expression of cathepsin S (CTSS) in RPE cells under oxidative stress conditions, RPE cells were treated with H2O2 and the expression of cathepsin S (CTSS) was determined. Specifically, the cells was treated with 10 μM and 50 μM H2O2, cathepsin S mRNA expression level analysis and western blot experiments were performed in order to confirm the expression of cathepsin S, and the same experimental method and conditions as in Example 1 were applied, except that cathepsin S-specific antibodies were used.

[5] = system: cathepsin S (CTSS); experiment: immunofluorescence analysis of cathepsin S in RPE cells; settings: H2O2 50 μM, 48 hours
Protocol: Immunofluorescence analysis was performed to confirm the suppression of cathepsin S in cathepsin S knockdown RPE cells of Example 3-1. Specifically, after cells prepared in the same manner as in the mRNA expression level analysis were washed twice with sterile PBS and fixed with 4% paraformaldehyde at room temperature for 30 minutes, the fixation was stopped by washing the cells three times with PBS. The cells were permeabilized with PBS comprising 0.01% Triton X-100 […]. After blocking for 1 hour, the insert membrane was removed using a scalpel and placed on Parafilm prior to being incubated with a primary antibody (depending on the protein of interest). All primary antibodies were diluted 1:50 in 5% BSA and PBS and used, and cultured at 4° C. overnight. Thereafter, the cells were washed three times with PBS and a secondary FITC- or TRITC-conjugated antibody was diluted 1:50 and applied at room temperature for 1 hour. After 1 mg/ml DAPI was added 10 minutes before removing a secondary antibody to stain the nuclei, the cells were coated with a mounting medium and a glass coverslip was placed on top. The membrane/coverslip was fixed to the glass slide using a mounting medium, and cells were observed under a fluorescence microscope (Leica DFC7000T).

[6] = system: PPARγ and VEGFA/AKT; experiment: western blot of angiogenic factors in RPE cells; settings: RPE cells treated with H2O2
Text: (§1) In the case of treatment with an inhibitor of cathepsin S expression or activity, it was confirmed whether angiogenesis in RPE cells induced by oxidative stress was reduced. Specifically, the expression levels of PPARγ and VEGFA/AKT, which play key roles in neovascularization, differentiation, migration, and proliferation, were confirmed through western blotting experiments, and the experimental methods and conditions were applied in the same manner as in Example 2. In addition, to confirm the presence or absence of cell tube formation, HUVECs (1×10^5) were treated on a Matrigel-coated 96-well-plate with reduced growth factors, and then the cells were treated with a conditioned medium (CM) for 2 hours by treating RPE cells with CTSS siRNA and H2O2 at 37° C. for 48 hours, and images were analyzed with an inverted fluorescence microscope.

[7] = system: HUVECs; experiment: tube formation of HUVECs treated with conditioned medium of RPE cells; settings: conditioned medium of H2O2-treated control RPE cells, 2 hours
Text: as §1

| SMILES | expression of C3a (immunofluorescence) [1] | expression of C5a (immunofluorescence) [1] | cell viability (MTT) [2] | relative iNOS mRNA levels ([3]; RPE cells, 50 μM and 100 μM H2O2) | iNOS protein (western blot) ([3]; RPE cells, 10, 50, 100 μM H2O2) | cathepsin S protein band (western blot) ([4]; 10 μM and 50 μM H2O2) | relative mRNA level of cathepsin S ([4]; 10 μM and 50 μM H2O2, vs control) | cathepsin S expression (red fluorescence) [5] | expression level of PPARγ (western blot) [6] | expression level of VEGFA/AKT (p-AKT) (western blot) [6] | tube formation [7] |
| --- | --- | --- | --- | --- | --- | --- | --- | --- | --- | --- | --- |
| Cc1ccc(S(=O)(=O)/C=C/C#N)cc1 [Bay 1170-82] | suppressed | suppressed | – | – | – | – | – | – | – | – | – |
| OO [H2O2] | – | – | decrease in cell viability | increased | increased in a H2O2 concentration-dependent manner | appeared thick and dark | higher than that of the control | significantly increased | increased | increased | marked increase in tube formation |

From US20240035033A1, “PREVENTION AND TREATMENT OF AGE-RELATED MACULAR DEGENERATION THROUGH SUPPRESSION OF CATHEPSIN S EXPRESSION” (CHUNG-ANG UNIVERSITY INDUSTRY-ACADEMIC COOPERATION …, priority 2022, published 2024)
